Reference: patent publication US20090197910A1, “NOVEL VIRAL REPLICATION INHIBITORS” (KATHOLIEKE UNIVERSITEIT LEUVEN, priority 2006, published 2009)

Assays:
[1] = test system: HCV Subgenomic Replicon; assay: HCV-Huh-5-2 replicon cell assay (luciferase); type: cell-based, Hepatitis C virus; conditions: HCV subgenomic replicon in Huh-5-2 cells, 72 hours, luciferase; read-out: EC50 (concentration required to inhibit luciferase activity in the replicon system by 50%)
Protocol: (§1) Huh-5-2 cells [a cell line with a persistent HCV replicon I3891uc-ubi-neo/NS3-3′/5.1; replicon with firefly luciferase-ubiquitin-neomycin phosphotransferase fusion protein and EMCV-IRES driven NS3-5B HCV polyprotein] was cultured in RPMI medium (Gibco) supplemented with 10% fetal calf serum, 2 mM L-glutamine (Life Technologies), 1× non-essential amino acids (Life Technologies); 100 IU/ml penicillin and 100 ug/ml streptomycin and 250 ug/ml G418 (Geneticin, Life Technologies). Cells were seeded at a densitiy of 7000 cells per well in 96 well View Plate™ (Packard) in medium containing the same components as described above, except for G418. Cells were allowed to adhere and proliferate for 24 hr. At that time, culture medium was removed and serial dilutions of the test compounds were added in culture medium lacking G418. Interferon alfa 2a (500 IU) was included as a positive control. Plates were further incubated at 37° C. and 5% CO2 for 72 hours. Replication of the HCV replicon in Huh-5 cells results in luciferase activity in the cells. Luciferase activity is measured by adding 50 μl of 1× Glo-lysis buffer (Promega) for 15 minutes followed by 50 ul of the Steady-Glo Luciferase assay reagent (Promega). Luciferase activity is measured with a luminometer and the signal in each individual well is expressed as a percentage of the untreated cultures. Parallel cultures of Huh-5-2 cells, seeded at a density of 7000 cells/well of classical 96-well cell culture plates (Becton-Dickinson) are treated in a similar fashion except that no Glo-lysis buffer or Steady-Glo Luciferase reagent is added. Instead the density of the culture is measured by means of the MTS method (Promega).

[2] = test system: Huh-5-2 cells; assay: Cytostatic effect on Huh-5-2 cells (MTS method, parallel cultures); type: cell-based; conditions: 72 hours, read-out: CC50 (concentration required to inhibit the proliferation of exponentially growing Huh-5-2 cells by 50%)
Protocol: as §1

Compound: CC(=O)OCC1OC(n2c(SCc3cc4cc(Br)ccc4oc3=O)nc3cc(Cl)c(Cl)cc32)C(OC(C)=O)C(OC(C)=O)C1OC(C)=O (centres unmarked) [Compound 7g, Acetic acid 3,5-diacetoxy-2-acctoxymethyl-6-[2-(6-bromo-2-oxo-2H-chromen-3-ylmethylsulfanyl)-5,6-dichloro-benzoimidazol-1-yl]-tetrahydro-pyran-4-yl ester]
- EC50 [1]: 4.08 µM
- CC50 [2]: > 64.8 µM
